Literature values as cited in US12343434B2, “Hybrid membrane camouflaged nanomedicine loaded with oxidative phosphorylation inhibitor and preparing method thereof” (Henan University, priority 2021, dated 2025).

Details: background statement

blood half-life: extremely short
SMILES: CCc1n(CC(=O)O[C@@H]2C[C@H](C)CC[C@H]2C(C)C)c2ccccc2[n+]1C.[Cl-] [Gboxin, 1-carboxymethyl-2-ethyl-3-methyl-1H-benzimidazole-3-ammonium L-menthol ester chloride]
